The test system of one series is non-infected H9 cells. The following applies: 4 days incubation in vitro. An excerpt:
Lithium gamma linolenate (LiGLA) for this study was obtained from Enfamol, Kentville, Nova Scotia, Canada.

The subject of series [1] is H9 cells that are chronically infected with HIV. In words: LiGLA 4 days incubation in vitro with H9 cells chronically infected with HIV. In kind it is cell-based.
Series [2] concerns BFU-E (Erythroid) of normal bone marrow cells. In words: AZT bone marrow toxicity in vitro, BFU-E colony formation. In kind it is cell-based. An excerpt: (§1) This is a standard practice.
Series [3] concerns CFU-Meg (Megakaryocyte) of normal bone marrow cells. Kind of series: AZT bone marrow toxicity in vitro, CFU-Meg colony formation. In kind it is cell-based.
From the text: as §1

Series [4] concerns CFU-GM (Myeloid) of normal bone marrow cells. In words: AZT bone marrow toxicity in vitro, CFU-GM colony formation. In kind it is cell-based.
From the text: as §1

In the next series the test system is herpes simplex virus. To be noted: in vitro; cited from earlier work.
Series [5] deals with normal bone marrow cells. In words: AZT toxicity on normal bone marrow cells in vitro, overall. The following applies: normal bone marrow cells with AZT.
Description: These studies were performed in vitro with normal bone marrow cells incubated in the presence of AZT and Li-GLA.
Series [6] concerns normal bone marrow cells. To be noted: in vitro with normal bone marrow cells (previous work; b10 also in vivo mice); cited from earlier work.

Structures are written as SMILES. “Also recorded” adds a separate entry of the source.

In the case of `CCCCC/C=C\C/C=C\C/C=C\CCCCC(=O)[O-].[Li+]` [Li-GLA, lithium gamma-linolenate], the H9 cells killed stood at 20% in the series with non-infected H9 cells and 90% in series [1]. Moreover, the “BFU-E (Erythroid) colonies” value was 50 ± 4 in series [2] (Li-GLA 10 μg/ml), 44 ± 4 in series [2] (Li-GLA 15 μg/ml) and 31 ± 3 in series [2] (Li-GLA 20 μg/ml). For the same compound, the results for the “CFU-Meg (Megakaryocyte) colonies” value in series [3] (Li-GLA 10 μg/ml), in series [3] (Li-GLA 15 μg/ml) and in series [3] (Li-GLA 20 μg/ml) were 32.0 ± 3, 28.0 ± 4 and 24.0 ± 3, respectively. Besides, the “CFU-GM (Myeloid) colonies” value is recorded as 66.5 in series [4] (Li-GLA 10 μg/ml), 55.5 in series [4] (Li-GLA 15 μg/ml) and 45.0 in series [4] (Li-GLA 20 μg/ml).

Take `[Cl-].[Li+]` [lithium chloride]: the “Concentration inhibiting herpes simplex virus replication” value in the series with herpes simplex virus is recorded as 5 to 30 mM. In the series with normal bone marrow cells [5], the “Effect on AZT toxicity / colony formation” value was “there is a reduction in AZT toxicity; however, the values never reach the level of the normal control; also recorded: reduced AZT toxicity but was not effective in increasing cell growth and colony formation”. For the same compound, the “Myelosuppression and marrow toxicity of AZT” value with normal bone marrow cells [6] was “reduced the myelosuppression and marrow toxicity of AZT significantly”.

Source of the values: US5840711A, “Compositions containing lithium inorganic salts and anti-viral drugs and method of treating viral infections such as acquired immunodeficiency syndrome” (priority 1997, dated 1998).
